Source: ChEMBL document CHEMBL1201862, “PubChem BioAssay data set” (2004)
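Tested at 5 concentrations; 48 h exposure; 96-well plates; endpoints linearly interpolated, else capped at highest concentration. GI50 = concentration required for 50% inhibition of growth.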 Activity calls are given as the source filed them. No stated cut-off is given here; in the data, active = GI50 up to about 1.1 µM and inactive = higher.

Key:
Test in all cases: NCI-60 cell line screen, 48 h
A498 = test system: A498
ACHN = test system: ACHN
NCI-H460 = test system: NCI-H460
HT-29 = test system: HT-29
M14 = test system: M14
SF-295 = test system: SF-295
U-251 = test system: U-251
MDA-MB-231 = test system: MDA-MB-231
UO-31 = test system: UO-31
NCI-H23 = test system: NCI-H23
OVCAR-3 = test system: OVCAR-3
CCRF-CEM = test system: CCRF-CEM
T47D = test system: T47D
SN12C = test system: SN12C
SR = test system: SR
HOP-62 = test system: HOP-62
SW-620 = test system: SW-620
TK-10 = test system: TK-10
SF-539 = test system: SF-539
HCT-116 = test system: HCT-116
SF-268 = test system: SF-268
MCF7 = test system: MCF7
NCI-H522 = test system: NCI-H522
UACC-257 = test system: UACC-257
MOLT-4 = test system: MOLT-4
NCI/ADR-RES = test system: NCI/ADR-RES
MDA-N = test system: MDA-N
SNB-75 = test system: SNB-75
OVCAR-8 = test system: OVCAR-8
786-0 = test system: 786-0
SK-MEL-28 = test system: SK-MEL-28
MDA-MB-435 = test system: MDA-MB-435
UACC-62 = test system: UACC-62
K562 = test system: K562
SK-MEL-5 = test system: SK-MEL-5
KM12 = test system: KM12
SK-OV-3 = test system: SK-OV-3
HCT-15 = test system: HCT-15
PC-3 = test system: PC-3
NCI-H226 = test system: NCI-H226
A549 = test system: A549
SNB-19 = test system: SNB-19
OVCAR-5 = test system: OVCAR-5
HL-60 = test system: HL-60
CAKI-1 = test system: CAKI-1
DU-145 = test system: DU-145
Malme-3M = test system: Malme-3M
IGROV-1 = test system: IGROV-1
HCC 2998 = test system: HCC 2998
BT-549 = test system: BT-549
COLO 205 = test system: COLO 205
SK-MEL-2 = test system: SK-MEL-2
Hs-578T = test system: Hs-578T
HOP-92 = test system: HOP-92
LOX IMVI = test system: LOX IMVI
RPMI-8226 = test system: RPMI-8226
OVCAR-4 = test system: OVCAR-4
EKVX = test system: EKVX

## CN(C)CCCNC(=O)N/N=C/c1ccc([N+](=O)[O-])cc1
A498
  GI50: 66.4 µM (inactive)
ACHN
  GI50: > 100 µM (inactive)
NCI-H460
  GI50: > 100 µM (inactive)
HT-29
  GI50: > 100 µM (inactive)
M14
  GI50: > 100 µM (inactive)
SF-295
  GI50: 78.2 µM (inactive)
U-251
  GI50: > 100 µM (inactive)
MDA-MB-231
  GI50: > 100 µM (inactive)
UO-31
  GI50: > 100 µM (inactive)
NCI-H23
  GI50: > 100 µM (inactive)
OVCAR-3
  GI50: > 100 µM (inactive)
CCRF-CEM
  GI50: > 100 µM (inactive)
T47D
  GI50: 86.1 µM (inactive)
SN12C
  GI50: > 100 µM (inactive)
SR
  GI50: > 100 µM (inactive)
HOP-62
  GI50: > 100 µM (inactive)
SW-620
  GI50: > 100 µM (inactive)
TK-10
  GI50: > 100 µM (inactive)
SF-539
  GI50: 82.2 µM (inactive)
HCT-116
  GI50: > 100 µM (inactive)
SF-268
  GI50: > 100 µM (inactive)
MCF7
  GI50: 53.1 µM (inactive)
NCI-H522
  GI50: > 100 µM (inactive)
UACC-257
  GI50: > 100 µM (inactive)
MOLT-4
  GI50: > 100 µM (inactive)
NCI/ADR-RES
  GI50: > 100 µM (inactive)
MDA-N
  GI50: 82.4 µM (inactive)
SNB-75
  GI50: 25.4 µM (inactive)
OVCAR-8
  GI50: > 100 µM (inactive)
786-0
  GI50: > 100 µM (inactive)
SK-MEL-28
  GI50: > 100 µM (inactive)
MDA-MB-435
  GI50: > 100 µM (inactive)
UACC-62
  GI50: > 100 µM (inactive)
K562
  GI50: > 100 µM (inactive)
SK-MEL-5
  GI50: > 100 µM (inactive)
KM12
  GI50: 95.3 µM (inactive)
SK-OV-3
  GI50: > 100 µM (inactive)
HCT-15
  GI50: > 100 µM
PC-3
  GI50: > 100 µM (inactive)
NCI-H226
  GI50: > 100 µM (inactive)
A549
  GI50: > 100 µM (inactive)
SNB-19
  GI50: > 100 µM (inactive)
OVCAR-5
  GI50: > 100 µM (inactive)
HL-60
  GI50: > 100 µM (inactive)
CAKI-1
  GI50: > 100 µM (inactive)
DU-145
  GI50: > 100 µM (inactive)
Malme-3M
  GI50: 40.2 µM (inactive)
IGROV-1
  GI50: > 100 µM (inactive)
HCC 2998
  GI50: > 100 µM (inactive)
BT-549
  GI50: > 100 µM (inactive)
COLO 205
  GI50: > 100 µM (inactive)
SK-MEL-2
  GI50: > 100 µM (inactive)
Hs-578T
  GI50: 46.7 µM (inactive)

## Cc1cn([C@@H]2O[C@H](CO[Si](C)(C)C(C)(C)C)[C@]3(O[C@H]3C(=O)NN)[C@H]2O[Si](C)(C)C(C)(C)C)c(=O)[nH]c1=O
A498
  GI50: 16.9 µM (inactive)
ACHN
  GI50: 5.86 µM (inactive)
NCI-H460
  GI50: 4.31 µM (inactive)
HT-29
  GI50: 2.9 µM (inactive)
HOP-92
  GI50: 6.24 µM (inactive)
M14
  GI50: 7.18 µM (inactive)
SF-295
  GI50: 7.69 µM (inactive)
U-251
  GI50: 4.23 µM (inactive)
MDA-MB-231
  GI50: 3.57 µM (inactive)
UO-31
  GI50: 14.2 µM (inactive)
NCI-H23
  GI50: 14.1 µM (inactive)
OVCAR-3
  GI50: 3.76 µM (inactive)
CCRF-CEM
  GI50: 2.42 µM (inactive)
T47D
  GI50: 2.36 µM (inactive)
SN12C
  GI50: 5.79 µM (inactive)
HOP-62
  GI50: 14.4 µM (inactive)
SW-620
  GI50: 5.73 µM (inactive)
TK-10
  GI50: 12.7 µM (inactive)
SF-539
  GI50: 4.75 µM (inactive)
HCT-116
  GI50: 4.08 µM (inactive)
LOX IMVI
  GI50: 3.33 µM (inactive)
SF-268
  GI50: 3.59 µM (inactive)
MCF7
  GI50: 4.26 µM (inactive)
NCI-H522
  GI50: 2.2 µM (inactive)
RPMI-8226
  GI50: 4.29 µM (inactive)
UACC-257
  GI50: 13 µM (inactive)
MOLT-4
  GI50: 2.04 µM (inactive)
NCI/ADR-RES
  GI50: 15.6 µM (inactive)
MDA-N
  GI50: 5.78 µM (inactive)
SNB-75
  GI50: 7.98 µM (inactive)
OVCAR-8
  GI50: 6.62 µM (inactive)
786-0
  GI50: 4.06 µM (inactive)
SK-MEL-28
  GI50: 10.3 µM (inactive)
MDA-MB-435
  GI50: 7.11 µM (inactive)
UACC-62
  GI50: 10.6 µM (inactive)
K562
  GI50: 2.75 µM (inactive)
OVCAR-4
  GI50: 6.4 µM (inactive)
SK-MEL-5
  GI50: 10.4 µM (inactive)
KM12
  GI50: 7.67 µM (inactive)
SK-OV-3
  GI50: 18.1 µM (inactive)
HCT-15
  GI50: 4.32 µM
PC-3
  GI50: 4.6 µM (inactive)
NCI-H226
  GI50: 12 µM (inactive)
A549
  GI50: 6.03 µM (inactive)
SNB-19
  GI50: 7.66 µM (inactive)
OVCAR-5
  GI50: 8.55 µM (inactive)
HL-60
  GI50: 3.13 µM (inactive)
CAKI-1
  GI50: 11.6 µM (inactive)
DU-145
  GI50: 6.31 µM (inactive)
EKVX
  GI50: 8.61 µM (inactive)
Malme-3M
  GI50: 3.39 µM (inactive)
IGROV-1
  GI50: 6.22 µM (inactive)
HCC 2998
  GI50: 3.13 µM (inactive)
BT-549
  GI50: 5.38 µM (inactive)
COLO 205
  GI50: 2.64 µM (inactive)
SK-MEL-2
  GI50: 6.37 µM (inactive)
Hs-578T
  GI50: 2.72 µM (inactive)
